From patent US9018006B2, “Stable Tregs and related materials and methods” (The University of Toledo, priority 2010, dated 2015)

Experiments:
T effector (Teff) cells = settings: Teff:Treg 1:1, after repeated re-stimulation
iTreg cells = test: Stability of Foxp3 expression of induced iTregs after re-stimulation with anti-CD3/anti-CD28 mAbs; type: cell-based, mouse; settings: after repeated re-stimulation with anti-CD3/anti-CD28 mAbs; nTreg cells 80%
Procedure: FIGS. 4A-4B. Stability of Foxp3 expression and suppressor function of the two-phase induced iTreg T cells. The nTreg cells were isolated from spleen of naïve mice (left panel). Naïve mouse CD4^+Foxp3/GFP^− cells (1×10^6/ml) cultured with APCs were stimulated with anti-CD3 mAb in the presence of 5 ng/ml TGF-β, 5 μg/ml anti-IL-2 mAb (S4B6), or 100 nM CP-690,550 for 3 days. After washing, fresh medium was supplemented with 10 units/ml rIL-2 and cultured for additional 3 days (total 6 day culture). All these 4 populations were subsequently re-stimulated with anti-CD3 mAb/anti-CD28 mAb for 3 days and examined by FACscan for Foxp3 expression (FIG. 4A). Purified naive CD4^+Foxp3/GFP^− cells labeled with CFSE were used as T-effector (Teff) cells and mixed with re-stimulated nTreg cells or re-stimulated CP-690,550-induced iTreg cells. Proliferation was measured by the number of Teff cell divisions (FIG. 4B).
Furthermore, the stability of Foxp3 expression of anti-IL-2 mAb-(S4B6) or Jak3 inhibitor (CP-690,550)-induced iTregs was compared with TGF-β-induced iTregs.

[1] = system: Naïve CD4+ Foxp3/GFP− cells; test: Two-phase induction/expansion of iTregs, Method 1 (anti-CD3/anti-CD28 plus inhibitor, then rIL-2); type: cell-based, mouse
transplant patients = settings: compared with OKT3 mAb; cited from earlier work

C[C@@H]1CCN(C(=O)CC#N)C[C@@H]1N(C)c1ncnc2[nH]ccc12 [CP-690,550]
suppressor function of induced iTreg cells (T effector (Teff) cells): maintained very potent suppressor function
induced iTreg cells that maintained Foxp3 expression (iTreg cells): 75%
Foxp3 expression during proliferation (cell divisions) ([1]; 6-day culture): maintained similar levels of Foxp3 expression
number of CD4+CD25+Foxp3/GFP+ cells on day 6 of culture ([1]; from initial 0.05×10^6 CD4+ Foxp3/GFP− cells): 0.4×10^6 cells
expansion in the number of iTreg cells ([1]; initial 3-day exposure, day 6 of culture): 8 fold

O=C(N/N=C/c1coc2ccccc2c1=O)c1cccnc1 [Stat5 inhibitor]
naïve CD4+ Foxp3/GFP− cells converted into CD4+CD25+Foxp3/GFP+ iTregs ([1]; 100 ng/ml Stat5 inhibitor first 3 days, then rIL-2 3 days, untreated controls 7%): 36%

OKT3 mAb: mouse anti-human CD3 agonist mAb
adverse effects in patients (transplant patients): elicited the release of many cytokines causing flu-like symptoms

TGF-β
induced iTreg cells that maintained Foxp3 expression (iTreg cells): 4.3%
